These results are taken from patent publication US9040527B2, “Pyrimidinediamine kinase inhibitors” (Rigel Pharmaceuticals, Inc., priority 2008, dated 2015).

Assay [1] has as its target T1, PLK1 (Homo sapiens, UniProt P53350). Description: In vitro PLK1 ELISA assay (biochemical). Further details: purchased Cell Signalling 7728. In a few lines:
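Commercial PLK1 phosphorylates neutravidin-captured biotinylated CHK2 peptide for 45 min at room temperature in HEPES pH 7.2 with Mg2+/Mn2+/DTT, compounds at 10 μM to 0.005 μM. Phospho-CHK2(T68) antibody plus HRP secondary gives chemiluminescent read-out used for IC50.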
On the technique in general: In an ELISA, binding on a coated surface is turned into a signal by an enzyme label.

Assay [2] deals with T1, PLK1. The assay can be described thus: Cellular PLK1 assay in K562 cells overexpressing CDC25C. Format: cell-based. The arrangement: endogenous in cells; host or cells: K562 (human chronic myelogenous leukemia) overexpressing CDC25C, nocodazole-arrested. As to conditions: nocodazole arrested, cdc25c p-Ser198 readout. An outline of the steps: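 K562 cells overexpressing CDC25C were arrested with 333 nM nocodazole for 18 h at 37 °C, then exposed to compound at 8 points from 10 μM to 0.005 μM in duplicate for 120 min. After fixation and permeabilization, cells were stained for cdc25c pSer198 with a PE secondary and read by flow cytometry, 10,000 cells per well.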

Where [3] appears, read: ELISA, CHK2-derived peptide substrate, read-out: PLK1 IC50 (μM) biochemical assay.
[4] abbreviates: read-out: IC50 in biochemical in vitro PLK1 ELISA assay (less than 10 μM).

Each structure is given as a SMILES string.

T1 sequence (P53350 whole entry): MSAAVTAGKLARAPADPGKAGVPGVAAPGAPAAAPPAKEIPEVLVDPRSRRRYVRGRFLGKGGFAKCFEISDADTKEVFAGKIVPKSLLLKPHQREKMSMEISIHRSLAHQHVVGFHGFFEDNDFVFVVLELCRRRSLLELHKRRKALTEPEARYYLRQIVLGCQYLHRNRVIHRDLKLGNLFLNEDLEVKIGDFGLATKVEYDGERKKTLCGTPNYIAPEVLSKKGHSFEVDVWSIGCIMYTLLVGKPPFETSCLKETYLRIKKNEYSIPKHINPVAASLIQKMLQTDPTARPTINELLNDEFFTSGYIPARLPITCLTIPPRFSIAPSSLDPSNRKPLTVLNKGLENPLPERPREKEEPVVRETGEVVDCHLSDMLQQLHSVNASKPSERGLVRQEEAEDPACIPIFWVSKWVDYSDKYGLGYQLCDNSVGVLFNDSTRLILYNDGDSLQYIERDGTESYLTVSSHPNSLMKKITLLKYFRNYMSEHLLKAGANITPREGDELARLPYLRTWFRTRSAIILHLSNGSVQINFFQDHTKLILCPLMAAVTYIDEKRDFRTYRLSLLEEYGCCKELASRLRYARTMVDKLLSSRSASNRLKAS

In the case of `CN1CCN(c2cccc(Nc3ncc(F)c(Nc4ccc5c(n4)N(CC4CCC4)C(=O)CO5)n3)c2)CC1` [compound 109, 4-(cyclobutylmethyl)-6-(5-fluoro-2-(3-(4-methylpiperazin-1-yl)phenylamino)pyrimidin-4-ylamino)-2H-pyrido[3,2-b][1,4]oxazin-3(4H)-one], the IC50 in assay [1] (setting [3]) is less than 0.5 µM; in assay [1] (setting [4]), less than 10 µM; in assay [2], 0.5 to 5 µM.
For `CN1CCN(c2cccc(Nc3ncc(F)c(Nc4ccc5c(n4)N(CC4CCCCC4)C(=O)CO5)n3)c2)CC1` [compound 110, 4-(cyclohexylmethyl)-6-(5-fluoro-2-(3-(4-methylpiperazin-1-yl)phenylamino)pyrimidin-4-ylamino)-2H-pyrido[3,2-b][1,4]oxazin-3(4H)-one], in that order: 5 to 10 µM, less than 10 µM and no less than 10 µM.
As to `Cc1cc(Nc2ncc(F)c(Nc3ccc4c(n3)N(CC3CCC3)C(=O)CO4)n2)ccc1N1CCN(C)CC1` [compound 112, 4-(cyclobutylmethyl)-6-(5-fluoro-2-(3-methyl-4-(4-methylpiperazin-1-yl)phenylamino)pyrimidin-4-ylamino)-2H-pyrido[3,2-b][1,4]oxazin-3(4H)-one], the IC50 in assay [1] (setting [3]) and in assay [2] was no less than 10 µM throughout.
Take `Cc1cc(Nc2ncc(F)c(Nc3ccc4c(n3)N(CC3CCCCC3)C(=O)CO4)n2)ccc1N1CCN(C)CC1` [compound 113, 4-(cyclohexylmethyl)-6-(5-fluoro-2-(3-methyl-4-(4-methylpiperazin-1-yl)phenylamino)pyrimidin-4-ylamino)-2H-pyrido[3,2-b][1,4]oxazin-3(4H)-one]: the half-maximal inhibitory concentration (IC50) in assay [1] (setting [3]) and in assay [2] was no less than 10 µM throughout.
For the compound `Cc1cc(Nc2ncc(C)c(Nc3ccc4c(n3)N(CC3CC3)C(=O)CO4)n2)ccc1N1CCN(C)CC1` [compound 114, 4-(cyclopropylmethyl)-6-(5-methyl-2-(3-methyl-4-(4-methyl-piperazin-1-yl)phenylamino)pyrimidin-4-ylamino)-2H-pyrido[3,2-b][1,4]oxazin-3(4H)-one], the 50% inhibitory concentration (IC50) in assay [1] (setting [3]) is 0.5 to 5 µM; in assay [1] (setting [4]), less than 10 µM; in assay [2] it was no less than 10 µM.
`Cc1cc(Nc2ncc(C)c(Nc3ccc4c(n3)N(CC3CCC3)C(=O)CO4)n2)ccc1N1CCN(C)CC1` [compound 115, 4-(cyclobutylmethyl)-6-(5-methyl-2-(3-methyl-4-(4-methylpiperazin-1-yl)phenylamino)pyrimidin-4-ylamino)-2H-pyrido[3,2-b][1,4]oxazin-3(4H)-one]: the IC50 was 0.5 to 5 µM in assay [1] (setting [3]), less than 10 µM in assay [1] (setting [4]) and no less than 10 µM in assay [2].
For `Cc1cnc(Nc2cccc(N3CCN(C)CC3)c2)nc1Nc1ccc2c(n1)N(C1CCCC1)C(=O)CO2` [compound 116, 4-cyclopentyl-6-(5-methyl-2-(3-(4-methylpiperazin-1-yl)phenylamino)pyrimidin-4-ylamino)-2H-pyrido[3,2-b][1,4]oxazin-3(4H)-one], in that order: 0.5 to 5 µM, less than 10 µM and no less than 10 µM.
Take `Cc1cc(Nc2ncc(C)c(Nc3ccc4c(n3)N(C3CCCC3)C(=O)CO4)n2)ccc1N1CCN(C)CC1` [compound 117, 4-cyclopentyl-6-(5-methyl-2-(3-methyl-4-(4-methylpiperazin-1-yl)phenylamino)pyrimidin-4-ylamino)-2H-pyrido[3,2-b][1,4]oxazin-3(4H)-one]: the 50% inhibitory concentration (IC50) in assay [1] (setting [3]) and in assay [2] was no less than 10 µM each time.
With `Cc1cc(Nc2ncc(F)c(Nc3ccc4c(n3)N(Cc3ccccc3)C(=O)CO4)n2)ccc1N1CCN(C)CC1` [compound 118, 4-benzyl-6-(5-fluoro-2-(3-methyl-4-(4-methylpiperazin-1-yl)phenylamino)pyrimidin-4-ylamino)-2H-pyrido[3,2-b][1,4]oxazin-3(4H)-one], the IC50 in assay [1] (setting [3]) is no less than 10 µM; in assay [2] it was 0.5 to 5 µM.

By IC50 is commonly meant the concentration that gives 50% inhibition.
